Reference: US7528140B2, “Substituted pyrrolo[3,2-d]pyrimidines as glycogen synthase kinase (GSK) inhibitors” (Teijin Limited, priority 2002, dated 2009)

Target: recombinant human GSK-3β (Homo sapiens, UniProt P49841)
Test: Measurement of GSK-3 enzyme activity inhibition (32P phosphorylation of phospho-glycogen synthase peptide-2)
Assay type: biochemical
Conditions: 20 μM ATP, 20 minutes at room temperature, read-out: GSK-3 enzyme inhibiting activity (IC50)
Experimental: Measurement of GSK-3 Enzyme Activity Inhibition
After adding 25 μL of phospho-glycogen synthase peptide-2 substrate solution [6 μM phospho -glycogen synthase peptide-2, 20 μM ATP, 16 mM MOPS buffer (pH 7.0), 0.2 mM EDTA, 20 mM magnesium acetate, 0.1 μCi [γ-^32P]ATP (specific activity: approximately 110 TBq/mmol)]to 5 μL of the test compound using 5% dimethylsulfoxide as the solvent, reaction was initiated by further addition of 20 μL of a GSK-3β enzyme solution [10 mU recombinant human GSK-3β, 20 mM MOPS buffer (pH 7.0), 1 mM EDTA, 0.1% polyoxyethylene lauryl ether (23 Lauryl Ether; Brij 35), 5% glycerol, 0.1% β-mercaptoethanol]. After conducting the reaction for 20 minutes at room temperature, an equivalent volume of a 200 mM phosphoric acid solution was added to quench the reaction, and 90 μL of the reaction product was adsorbed onto a MultiScreen PH plate (Millipore) and rinsed with a 100 mM phosphoric acid solution. After drying the plate, 30 μL of Micro Scint-O (Packard BioScience) was added, and the cpm was measured with a scintillation counter to determine the inhibiting activity. Phospho GS Peptide2 is […]P)-Glu-Asp-Glu-Glu-Glu (SEQ ID NO:1).

recombinant human GSK-3β, sequence (P49841 whole entry): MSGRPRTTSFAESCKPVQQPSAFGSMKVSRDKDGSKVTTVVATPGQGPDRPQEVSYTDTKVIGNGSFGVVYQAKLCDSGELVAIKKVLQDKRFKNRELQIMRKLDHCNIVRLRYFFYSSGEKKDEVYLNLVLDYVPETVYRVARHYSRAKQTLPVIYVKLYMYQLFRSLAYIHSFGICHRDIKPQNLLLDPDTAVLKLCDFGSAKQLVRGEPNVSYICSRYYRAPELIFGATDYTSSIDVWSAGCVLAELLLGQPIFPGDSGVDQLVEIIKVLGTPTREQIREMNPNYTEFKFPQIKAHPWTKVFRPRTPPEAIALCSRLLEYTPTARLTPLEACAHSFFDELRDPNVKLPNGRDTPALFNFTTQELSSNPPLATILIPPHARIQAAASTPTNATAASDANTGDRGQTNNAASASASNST

| Compound | IC50 |
| --- | --- |
| CN(C)c1c(C#N)c2nc[nH]c(=S)c2n1CCNC(=O)c1ccc(F)cc1 [6-1029, N-{2-[6-(dimethylamino)-7-cyano-4-thioxo(3-hydropyrrolo[3,2-d]pyrimidin-5-yl)]ethyl}(4-fluorophenyl)carboxamide] | 30 to 100 nM |
| N#Cc1c(N2CCCC2)n(CCNC(=O)c2ccc(F)cc2)c2c(=S)[nH]cnc12 [6-1031, N-[2-(7-cyano-6-pyrrolidinyl-4-thioxo(3-hydropyrrolo[3,2-d]pyrimidin-5-yl))ethyl](4-fluorophenyl)carboxamide] | 30 to 100 nM |
